{"source": "patent US10723726B2", "about": "“Solid forms of (Z)-4-(5-((3-benzyl-4-oxo-2-thioxothiazolidin-5-ylidene)methyl)furan-2-yl)benzoic acid” (GB006, INC., priority 2015, dated 2020)", "key": {"[1]": {"experiment": "Humidity stress at 40° C./75% RH", "assay_type": "physicochemical", "settings": "5-6 days", "procedure": "The larger vials were capped, sealed with Parafilm and placed inside an oven at 40° C. for up to 6 days. Salts were then removed from these conditions and changes observed (e.g. color, deliquescence etc.) before being analyzed for weight change and by XRPD. Samples were examined visually after stressing, form composition confirmed by XRPD analysis and weight change recorded (Table 7)."}, "physchem": {"experiment": "physchem", "excerpt": "A limited salt screen was previously conducted using five inorganic counter-ions (Na, K, NH4, Ca and Mg)."}, "[2]": {"experiment": "Solubility estimation by aliquot addition and temperature cycling", "assay_type": "physicochemical", "settings": "for solubility: thermodynamic from solid, 20° C., read-out: Approx. solubility", "procedure": "Aliquots of the test solvent were added to an accurately weighed sample (−10 mg) of LA1 at ambient temperature. The aliquot volumes were typically 200-1000 μL. Complete dissolution of the test material was determined by visual inspection. The solubility was estimated from these experiments based on the total solvent used to provide complete dissolution.\nFirst, the samples were heated from 20° C. to within 3° C. of solvent boiling point (or 100° C., whichever was lower) at 0.5° C./minute; then cooled to 20° C. at 0.2° C./minute while stirring at 800 rpm.\nFrom the infrared (IR) transmission data of the sample vials, dissolution and precipitation events were recorded as the point of complete transmission of IR and the onset of turbidity by IR respectively. Selected samples were also agitated on an orbital shaker at 50° C. and visually observed for dissolution."}, "glucocorticoid receptor": {"target": "T1, glucocorticoid receptor (Homo sapiens, UniProt P04150)", "T1 sequence (P04150 1-777)": "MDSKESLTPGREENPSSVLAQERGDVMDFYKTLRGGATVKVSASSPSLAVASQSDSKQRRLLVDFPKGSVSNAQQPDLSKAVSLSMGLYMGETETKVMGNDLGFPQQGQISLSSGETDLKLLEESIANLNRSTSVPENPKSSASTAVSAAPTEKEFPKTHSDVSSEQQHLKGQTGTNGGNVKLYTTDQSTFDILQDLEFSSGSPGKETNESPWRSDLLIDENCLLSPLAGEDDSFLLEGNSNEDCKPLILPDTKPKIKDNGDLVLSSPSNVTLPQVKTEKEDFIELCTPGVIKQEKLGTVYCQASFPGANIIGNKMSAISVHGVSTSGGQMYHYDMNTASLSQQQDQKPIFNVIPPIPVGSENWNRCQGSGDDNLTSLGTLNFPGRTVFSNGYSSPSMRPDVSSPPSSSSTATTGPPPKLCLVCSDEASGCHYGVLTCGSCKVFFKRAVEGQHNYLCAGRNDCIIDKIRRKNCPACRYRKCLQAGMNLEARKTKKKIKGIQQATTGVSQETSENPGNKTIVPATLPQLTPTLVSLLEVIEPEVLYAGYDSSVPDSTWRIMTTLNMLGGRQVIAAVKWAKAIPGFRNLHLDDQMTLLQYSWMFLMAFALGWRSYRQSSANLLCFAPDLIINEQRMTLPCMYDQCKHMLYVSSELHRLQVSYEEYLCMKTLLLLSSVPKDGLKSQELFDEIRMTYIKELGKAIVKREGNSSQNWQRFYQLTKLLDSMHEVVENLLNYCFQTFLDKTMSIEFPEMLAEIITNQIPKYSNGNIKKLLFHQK", "experiment": "Glucocorticoid receptor agonist assay"}, "[3]": {"settings": "mouse, in vivo, po", "quoted_text": "Mice were inoculated with B16F10 tumors as described above. Once the tumor volume reached around 45 mm^3, animals were randomized into various groups with 10 animals in all the groups so that the average tumor volume of each group was similar.\nLA1 was combined with a solution containing 5% DMSO, 5% Solutol:ethanol (1:1), 20% Tween20, and 70% N-saline."}, "[4]": {"settings": "mice; cited from earlier work"}}, "note": "Entries after “also recorded” stand apart in the source; their conditions may differ. Counter-ions that a name gives are not always drawn."}
{"smiles": "O=C(O)c1ccc(-c2ccc(/C=C3\\SC(=S)N(Cc4ccccc4)C3=O)o2)cc1", "note": "[LA1 choline salt]", "values": [{"measurement": "Weight gain (%)", "setting": "[1]", "value": 8.9, "unit": "%"}, {"measurement": "XRPD after stressing", "setting": "[1]", "value": "phase change; also recorded: New pattern (Q)"}]}
{"smiles": "O=C(O)c1ccc(-c2ccc(/C=C3\\SC(=S)N(Cc4ccccc4)C3=O)o2)cc1", "note": "[LA1, (Z)-4-(5-((3-benzyl-4-oxo-2-thioxothiazolidin-5-ylidene)methyl)furan-2-yl)benzoic acid]", "values": [{"measurement": "solubility", "setting": "physchem", "value": 0.78, "unit": "µg/mL"}, {"measurement": "dissolution upon heating", "setting": "[2]; DMF, 73° C.", "value": 10, "unit": "mg/mL"}, {"measurement": "solubility by aliquot addition, overall", "setting": "[2]; all solvents and solvent mixtures tested", "value": "insoluble in all solvents tested; also recorded: poor solubility in all solvents tested"}, {"measurement": "solubility", "setting": "[2]; aqueous with cosolvent or surfactant or cyclodextrin, DMF:water (1:1)", "value": "< 10000", "unit": "µg/mL"}, {"measurement": "solubility", "setting": "[2]; organic solvent or mixture, DMF:MeOH (1:1)", "value": "< 10000", "unit": "µg/mL"}, {"measurement": "solubility", "setting": "[2]; organic solvent or mixture, DMF:THF (1:1)", "value": "< 7000", "unit": "µg/mL"}, {"measurement": "solubility", "setting": "[2]; organic solvent or mixture, MeOH:ACN:dioxane (1:1:1)", "value": "< 10000", "unit": "µg/mL"}, {"measurement": "solubility", "setting": "[2]; organic solvent or mixture, MeOH:acetone (1:1)", "value": "< 10000", "unit": "µg/mL"}, {"measurement": "solubility", "setting": "[2]; organic solvent or mixture, THF:Acetone (1:1)", "value": "< 10000", "unit": "µg/mL"}, {"measurement": "solubility", "setting": "[2]; organic solvent or mixture, THF:MeOH (1:1)", "value": "< 10000", "unit": "µg/mL"}, {"measurement": "solubility", "setting": "[2]; organic solvent or mixture, THF", "value": "< 10000", "unit": "µg/mL"}, {"measurement": "solubility", "setting": "[2]; organic solvent or mixture, acetone", "value": "< 10000", "unit": "µg/mL"}, {"measurement": "solubility", "setting": "[2]; organic solvent or mixture, acetonitrile", "value": "< 10000", "unit": "µg/mL"}, {"measurement": "solubility", "setting": "[2]; organic solvent or mixture, anisole", "value": "< 10000", "unit": "µg/mL"}, {"measurement": "solubility", "setting": "[2]; organic solvent or mixture, dichloromethane", "value": "< 10000", "unit": "µg/mL"}, {"measurement": "solubility", "setting": "[2]; organic solvent or mixture, dimethylformamide", "value": "< 10000", "unit": "µg/mL"}, {"measurement": "solubility", "setting": "[2]; organic solvent or mixture, hexafluoroisopropanol", "value": "< 10000", "unit": "µg/mL"}, {"measurement": "solubility", "setting": "[2]; organic solvent or mixture, methanol", "value": "< 10000", "unit": "µg/mL"}, {"measurement": "efficacy in glucocorticoid receptor agonist assay", "setting": "glucocorticoid receptor", "value": "shown efficacy"}, {"measurement": "exposure in blood at end of study", "setting": "[3]", "value": "below the limit of quantitation"}, {"measurement": "exposure in tumor at end of study", "setting": "[3]", "value": "below the limit of quantitation"}, {"measurement": "renal ischemia/reperfusion injury", "setting": "[4]", "value": "reduce renal ischemia/reperfusion injury"}]}
